Experimental data: ChEMBL document CHEMBL4190243, “Natural alkaloids as P-gp inhibitors for multidrug resistance reversal in cancer” (Eur J Med Chem, 2017)
Residues, ends and D or L forms follow the SMILES beside them.

Key:
Homo sapiens [1] = species on record: Homo sapiens; experiment: Inhibition of P-gp in human A549/DDP cells assessed as potentiation of doxorubicin-induced cytotoxicity by measuring fold reduction in doxorubicin IC50 at 5 uM; assay type: cell-based
Homo sapiens [2] = species on record: Homo sapiens; experiment: Inhibition of P-gp in human K562/DOX cells assessed as potentiation of doxorubicin-induced cytotoxicity by measuring fold reduction in doxorubicin IC50 at 5 uM; assay type: cell-based
Homo sapiens [3] = species on record: Homo sapiens; experiment: Inhibition of P-gp in human A549/DDP cells assessed as potentiation of […]-induced cytotoxicity by measuring fold reduction in doxorubicin IC50 at 5 uM; assay type: cell-based
Homo sapiens [4] = species on record: Homo sapiens; experiment: Inhibition of P-gp in human SW620/DOX300 cells assessed as potentiation of doxorubicin-induced cytotoxicity by measuring fold reduction in doxorubicin IC50; assay type: cell-based
Homo sapiens [5] = species on record: Homo sapiens; experiment: Inhibition of P-gp in human Caco2 cells assessed as potentiation of doxorubicin-induced cytotoxicity by measuring fold reduction in doxorubicin IC50; assay type: cell-based
Homo sapiens [6] = species on record: Homo sapiens; experiment: Inhibition of P-gp in human lung cancer cells assessed as potentiation of doxorubicin-induced cytotoxicity by measuring fold reduction in doxorubicin IC50; assay type: cell-based
Homo sapiens [7] = species on record: Homo sapiens; experiment: Inhibition of MRP in P-gp null human lung cancer cells assessed as potentiation of doxorubicin-induced cytotoxicity by measuring fold reduction in doxorubicin IC50
Homo sapiens [8] = species on record: Homo sapiens; experiment: Inhibition of MRP in human lung cancer cells assessed as potentiation of doxorubicin-induced cytotoxicity by measuring fold reduction in doxorubicin IC50; assay type: cell-based
Homo sapiens [9] = species on record: Homo sapiens; experiment: Inhibition of P-gp in human KB/VCR cells assessed as potentiation of vincristine-induced cytotoxicity by measuring fold reduction in vincristine IC50; assay type: cell-based
MES-SA/Dx5 = experiment: Inhibition of P-gp in human MES-SA/Dx5 cells assessed as potentiation of paclitaxel-induced cytotoxicity; assay type: cell-based
Homo sapiens [10] = species on record: Homo sapiens; experiment: Inhibition of P-gp in human MCF7/DOX cells assessed as potentiation of doxorubicin-induced cytotoxicity by measuring fold reduction in doxorubicin IC50 at 5 uM; assay type: cell-based
K562/A02 = experiment: Inhibition of P-gp in human K562/A02 cells assessed as potentiation of doxorubicin-induced cytotoxicity by measuring fold reduction in doxorubicin IC50 at 5 uM; assay type: cell-based
Homo sapiens [11] = species on record: Homo sapiens; experiment: Inhibition of P-gp in human KB/VCR cells assessed as potentiation of vincristine-induced cytotoxicity by measuring fold reduction in vincristine IC50 at 5 uM; assay type: cell-based
[12] = target: T1, ATP-dependent translocase ABCB1 (Homo sapiens, UniProt P08183); experiment: Inhibition of MDR1 in human KB-C2 cells assessed as potentiation of vincristine-induced cytotoxicity by measuring fold reduction in vincristine IC50; assay type: cell-based
Homo sapiens [13] = species on record: Homo sapiens; experiment: Inhibition of P-gp in human Bel7402/5-FU cells assessed as increase in intracellular accumulation of doxorubicin at 0.4 mg/ml preincubated for 48 hrs followed by doxorubicin addition measured after 2 hrs by FACS analysis relative to control; assay type: cell-based
Homo sapiens [14] = species on record: Homo sapiens; experiment: Inhibition of P-gp in human Bel7402/5-FU cells assessed as increase in intracellular accumulation of Rh123 at 0.8 mg/ml preincubated for 48 hrs followed by Rh123 addition measured after 2 hrs by FACS analysis relative to control; assay type: cell-based
Homo sapiens [15] = species on record: Homo sapiens; experiment: Inhibition of P-gp in human KBV1 cells assessed as potentiation of vinblastine-induced cytotoxicity by measuring fold reduction in vinblastine IC50 at 50 uM; assay type: cell-based
Homo sapiens [16] = species on record: Homo sapiens; experiment: Inhibition of P-gp in human K562/VCR cells assessed as potentiation of doxorubicin-induced cytotoxicity by measuring fold reduction in doxorubicin IC50; assay type: cell-based
Homo sapiens [17] = species on record: Homo sapiens; experiment: Inhibition of P-gp in human CEM/DOX5000 cells assessed as potentiation of doxorubicin-induced cytotoxicity by measuring fold reduction in doxorubicin IC50; assay type: cell-based
[18] = Inhibition of P-gp in human Caco2 cells assessed as reduction in accumulation of Rh123 preincubated for 30 mins followed by Rh123 addition measured after 90 mins by fluorescence spectrofluorometric method; assay type: cell-based; conditions: Caco-2
[19] = Inhibition of P-gp in human Caco2 cells assessed as reduction in accumulation of calcein-AM preincubated for 30 mins followed by Rh123 addition measured after 90 mins by fluorescence spectrofluorometric method; assay type: cell-based; conditions: Caco-2
Homo sapiens [20] = species on record: Homo sapiens; experiment: Inhibition of P-gp in human A549/PA cells assessed as synergistic cytotoxicity with paclitaxel after 48 hrs by SRB assay; assay type: cell-based
[21] = target: T1, ATP-dependent translocase ABCB1; experiment: Inhibition of human MDR1 expressed in mouse L5178 cells assessed as accumulation of Rh123 by measuring fluorescence activity ratio preincubated for 10 mins followed by Rh123 addition measured after 20 mins by FACS analysis; assay type: cell-based
Homo sapiens [22] = species on record: Homo sapiens; experiment: Inhibition of P-gp in human CCRF-CEM/VLB100 cells assessed as potentiation of vincristine-induced cytotoxicity by measuring fold reduction in vincristine IC50
[23] = Inhibition of P-gp in human HCT116/VM46 cells assessed as potentiation of paclitaxel-induced cytotoxicity; assay type: cell-based; conditions: HCT-116/VM46

T1 sequence (P08183 whole entry): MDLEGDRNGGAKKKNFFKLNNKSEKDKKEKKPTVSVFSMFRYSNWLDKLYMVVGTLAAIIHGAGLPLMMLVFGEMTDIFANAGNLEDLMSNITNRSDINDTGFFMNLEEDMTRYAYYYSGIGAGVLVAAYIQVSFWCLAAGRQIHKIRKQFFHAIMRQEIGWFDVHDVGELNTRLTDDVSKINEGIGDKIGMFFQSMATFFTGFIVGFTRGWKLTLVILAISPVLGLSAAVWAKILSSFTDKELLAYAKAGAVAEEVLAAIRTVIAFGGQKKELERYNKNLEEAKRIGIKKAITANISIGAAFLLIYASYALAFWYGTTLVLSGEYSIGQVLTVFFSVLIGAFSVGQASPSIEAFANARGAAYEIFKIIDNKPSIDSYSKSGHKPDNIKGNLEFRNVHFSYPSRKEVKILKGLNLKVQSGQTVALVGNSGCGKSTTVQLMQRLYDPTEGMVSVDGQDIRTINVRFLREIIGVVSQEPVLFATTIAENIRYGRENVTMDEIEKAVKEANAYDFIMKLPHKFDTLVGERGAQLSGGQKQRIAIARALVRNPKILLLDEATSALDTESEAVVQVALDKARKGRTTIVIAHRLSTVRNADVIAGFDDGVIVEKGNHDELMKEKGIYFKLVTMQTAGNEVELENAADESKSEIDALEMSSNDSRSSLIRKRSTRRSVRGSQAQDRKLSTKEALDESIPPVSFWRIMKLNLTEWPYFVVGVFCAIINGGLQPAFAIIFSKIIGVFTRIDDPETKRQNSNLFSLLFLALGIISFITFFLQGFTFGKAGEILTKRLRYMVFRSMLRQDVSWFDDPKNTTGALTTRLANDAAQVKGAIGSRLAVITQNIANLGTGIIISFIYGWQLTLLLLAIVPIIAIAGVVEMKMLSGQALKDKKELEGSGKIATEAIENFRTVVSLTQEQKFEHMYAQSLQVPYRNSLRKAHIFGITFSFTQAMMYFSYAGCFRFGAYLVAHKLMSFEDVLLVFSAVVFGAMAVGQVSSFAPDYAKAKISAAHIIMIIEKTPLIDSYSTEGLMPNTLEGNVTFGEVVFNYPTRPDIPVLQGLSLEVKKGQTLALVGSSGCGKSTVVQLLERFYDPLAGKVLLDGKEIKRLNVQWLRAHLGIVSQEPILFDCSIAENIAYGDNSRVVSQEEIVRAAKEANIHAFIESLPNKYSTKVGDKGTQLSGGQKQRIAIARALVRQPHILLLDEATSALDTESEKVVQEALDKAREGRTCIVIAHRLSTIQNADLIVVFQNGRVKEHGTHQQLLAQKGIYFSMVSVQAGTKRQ

Q: Which results are given for `C=CC(C)(C)[C@]12c3ccccc3N(C(C)=O)[C@H]1N1C(=O)[C@@H](C)n3c(nc4ccccc4c3=O)[C@@H]1C2O` (stereo partly specified)?
A: fold change (FC) (Homo sapiens [1]): 8; fold change (FC) (Homo sapiens [2]): 5; fold change (FC) (Homo sapiens [3]): 8

Q: For `COC(=O)c1c(-c2ccc(O)cc2)c(-c2ccc(O)cc2)cn1CC(=O)c1ccc(OC)cc1`, which fold change (FC) (Homo sapiens [4]) is on record?
A: 5

Q: For `C[n+]1cc2c3c(ccc2c2ccc4cc5c(cc4c21)OCO5)OCO3`, which fold change (FC) (Homo sapiens [5]) is on record?
A: 18

Q: With `C=CC(C)(C)[C@@]12C[C@H]3c4nc5ccccc5c(=O)n4CC(=O)N3[C@@H]1N(C(C)=O)c1ccccc12` as the compound, how does the fold change (FC) (Homo sapiens [6]) read?
A: 200

Q: And the fold change (FC) (Homo sapiens [7])?
A: 15

Q: What about the fold change (FC) (Homo sapiens [8]) of the same compound?
A: 66

Q: With `CC[C@]12CCCN[C@]13/C(=C\C(=O)OC)c1ccccc1N3C(=O)CC2` as the compound, how does the fold change (FC) (Homo sapiens [9]) read?
A: 4.7

Q: For `COc1ccc2c(c1)C(=O)c1c(OC)c(OC)c(OC)c3ccnc-2c13`, which ED50 (MES-SA/Dx5) is on record?
A: 0.03 µg/mL

Q: With `CO[C@@]1(C)N(C/C=C/c2ccccc2)C(=O)C2=C[C@@]3(C(=O)N(C)c4ccccc43)C(=O)N21` as the compound, how does the fold change (FC) (Homo sapiens [10]) read?
A: 42

Q: And the fold change (FC) (K562/A02)?
A: 16

Q: And the fold change (FC) (Homo sapiens [11])?
A: 10

Q: For `COc1cc2c(cc1O)CCN[C@]21CS[C@@H]2c3c(OC(C)=O)c(C)c4c(c3[C@H](COC1=O)N1[C@@H]2[C@H]2c3c(cc(C)c(OC)c3O)C[C@@H]([C@@H]1O)N2C)OCO4` [TRABECTEDIN], which “fold change (FC)” value [12] is on record?
A: 16

Q: With `CC(C)[C@H](NC(=O)[C@H](CO)NC(=O)[C@@H](N)Cc1ccc(O)cc1)C(=O)O` (H-Tyr-Ser-Val-OH) as the compound, how does the fold change (FC) (Homo sapiens [13]) read?
A: 3

Q: And the fold change (FC) (Homo sapiens [14])?
A: 1 to 2

Q: With `CC[C@@H](O)[C@H]1CC[C@H]2O[C@H]3CCN1[C@@H]2[C@@H]1C3O/C(=C2\OC(=O)C(C)=C2OC)[C@H]1C` (stereo partly specified) as the compound, how does the fold change (FC) (Homo sapiens [15]) read?
A: 2

Q: Which fold change (FC) (Homo sapiens [16]) does the source give for `O=C1CCC[C@@H]2[C@H]3CCCN4CCC[C@@H](CN12)[C@@H]34` here?
A: 2.2

Q: What does the source list for `CN1Cc2c(ccc3c2OCO3)C2C(O)Cc3cc4c(cc3C21)OCO4` (stereo not drawn) [CHELIDONINE (+)]?
A: fold change (FC) (Homo sapiens [5]): 6; fold change (FC) (Homo sapiens [17]): 3; IC50 [18]: 9 µM; IC50 [19]: 11 µM

Q: For `COc1ccc2c3c(c4cc(OC)c(OC)cc4c2c1)C[C@H]1CCCN1C3`, which CI (Homo sapiens [20]) is on record?
A: 0.45

Q: Which Ratio [21] does the source give for `Cn1c2ccccc2c(=O)c2c(O)cc3c(c21)CC(C(C)(O)CO)O3` (stereo unspecified) [GRAVACRIDONDIOL] here?
A: 1.72

Q: Which fold change (FC) (Homo sapiens [22]) does the source give for `C=CC(C)(C)[C@@]12C[C@H]3c4nc5ccccc5c(=O)n4[C@H](C)C(=O)N3[C@@H]1N(C(C)=O)c1ccccc12` here?
A: 700

Q: For `COc1ccc(C2=C(c3ccc(OC)c(OC)c3)C(=O)N(CCc3cc(Br)c(OCc4ccccc4)c(OCCN4CCOCC4)c3)C2=O)cc1OC`, which EC50 [23] is on record?
A: 0.423 µM
